pIC50, pKi: −log10 of the molar value. Each block holds one compound with its values, some of them ahead of it. Square brackets hold non-standard residues; d marks the D form. Peptide text beside a SMILES is read from it. PhLac = O=C(O)[C@@H](O)Cc1ccccc1
Experiments:
[1] = biological target: D(2) dopamine receptor (Bos taurus) (UniProt P20288); assay: Modulation of [3H]Spiroperidol/N-Propylnorapomorphine binding to dopamine D2 receptor in bovine striatal membranes incubated for 1 hr in presence of Gpp(NH)p by Cheng-Prusoff analysis; format: cell membranes; conditions: Striatum, Membrane, filed as modulator
[2] = biological target: D(2) dopamine receptor (Bos taurus) (UniProt P20288); assay: Modulation of [3H]Spiroperidol/N-Propylnorapomorphine binding to dopamine D2 receptor in bovine striatal membranes incubated for 1 hr by Cheng-Prusoff analysis; format: cell membranes; conditions: Striatum, Membrane, filed as modulator
[3] = biological target: Delta-type opioid receptor (Mus musculus, UniProt P32300); assay: Inhibition of [3H]-Deltorphin 2 binding to mouse delta opioid receptor expressed in rat GH3 cell membranes by Cheng-Prusoff analysis; set-up: species or system Cell membrane
Mus musculus [4] = assay: Immunosuppressive activity in B6D2F1 mouse model of graft-versus-host disease assessed as mean survival days at 1 mg/kg, ip administered for day 1 to day 10 (day 6 omitted) and measured at day 60; format: functional; conditions: time 60 day
Mus musculus [5] = assay: Immunosuppressive activity in B6D2F1 mouse model of graft-versus-host disease assessed as mean survival days at 3 mg/kg, ip administered for day 1 to day 10 (day 6 omitted) and measured at day 60; format: functional; conditions: time 60 day
Rattus norvegicus = assay: Immunosuppressive activity in Lewis rat model of Heart Allotransplantation assessed as mean survival days at 6 mg/kg, ip administered for 10 days by Manntel-Haenszel test; format: functional; conditions: time 10 day
Integrin alpha-4/beta-1 = Integrin alpha-4/beta-1 (Homo sapiens, UniProt P05556+P13612); assay: Displacement of 125I-VCAM-Ig from VLA4 in human Jurkat cells incubated for 30 mins by scintillation counting method; format: cell-based
Neprilysin = Neprilysin (Homo sapiens, UniProt P08473); assay: Inhibition of NEP 24.11 (unknown origin) by fluorometric assay
[6] = Oral bioavailability in monkey at 10 mg/kg; format: ADME, organism-based, Macaca mulatta; conditions: rhesus monkey, in vivo
Stromelysin-1 = Stromelysin-1 (Homo sapiens, UniProt P08254); assay: Inhibition of human MMP3 by fluorometric assay
Interstitial collagenase = Interstitial collagenase (Homo sapiens, UniProt P03956); assay: Inhibition of PMA-induced human skin fibroblast derived MMP1 by fluorometric assay; format: tissue-based
Matrilysin = Matrilysin (Homo sapiens, UniProt P09237); assay: Inhibition of human MMP7 by fluorometric assay
[7] = biological target: 72 kDa type IV collagenase (Homo sapiens, UniProt P08253); assay: Inhibition of TNF-induced MMP2 isolated from human HT-1080 cell medium by fluorometric assay; format: tissue-based
[8] = Half life in monkey at 10 mg/kg, po; format: ADME, organism-based, Macaca mulatta; conditions: rhesus monkey, in vivo
[9] = Inhibition of ACAT in cholesterol-fed New Zealand rabbit intestional microsomes using [1-14C]oleoyl-CoA as substrate preincubated for 5 mins followed by substrate addition and measured after 5 mins by liquid scintillation counting method; set-up: species or system Oryctolagus cuniculus, Intestine, Microsome
MDA-MB-231 = assay: Antiproliferative activity against human MDA-MB-231 cells; format: functional, cell-based
[10] = Inhibition of HIV2 protease; set-up: species or system Human immunodeficiency virus 2
[11] = test system: Human immunodeficiency virus 1; assay: Antiviral activity against HIV1 3b isolate infected in human MT4 cells assessed as blockade of viral spread pretreated for 24 hrs followed by viral infection and subsequently treated with compound every 2 to 3 days post infection by ELISA; format: functional; conditions: Human immunodeficiency virus 1, 3b isolate, read-out: CIC95
[12] = Growth inhibition of BAEC incubated for 3 days by Coulter counter method; conditions: Bos taurus, 72 h
CCRF-CEM = assay: Antiproliferative activity against human CEM cells incubated for 96 hrs by Coulter counter method; format: functional, cell-based
L1210 = assay: Antiproliferative activity against mouse L1210 cells incubated for 48 hrs by Coulter counter method; format: functional, cell-based; conditions: L1210, 48 h
HeLa = assay: Antiproliferative activity against human HeLa cells incubated for 4 days by Coulter counter method; format: functional, cell-based; conditions: 96 h
HMEC-1 = assay: Growth inhibition of HMEC-1 incubated for 4 days by Coulter counter method; format: cell-based; conditions: Homo sapiens, HMEC-1, 96 h
[13] = test system: Poly(dG-dC)oligonucleotide; assay: Binding affinity to poly (dG-dC) (unknown origin) by ethidium displacement assay; format: nucleic-acid assay
[14] = test system: Poly(dA-dT)oligonucleotide; assay: Binding affinity to poly (dA-dT) (unknown origin) by ethidium displacement assay; format: nucleic-acid assay
CAKI-2 = assay: Cytotoxicity against human Caki-2 cells incubated for 96 hrs by MTT assay; format: functional, cell-based; conditions: CAKI-2, 96 h
PC-3 = assay: Cytotoxicity against human PC-3 cells incubated for 96 hrs by MTT assay; format: functional, cell-based; conditions: PC-3, 96 h
A549 = assay: Cytotoxicity against human A549 cells incubated for 96 hrs by MTT assay; format: functional, cell-based; conditions: A549, 96 h
HL-60 = assay: Cytotoxicity against human HL-60 cells incubated for 96 hrs by MTT assay; format: functional, cell-based; conditions: HL-60, 96 h
HT-29 = assay: Cytotoxicity against human HT-29 cells incubated for 96 hrs by MTT assay; format: functional, cell-based; conditions: HT-29, 96 h
[15] = Selectivity index, ratio of Ki for human CB1 receptor expressed in HEK cells to Ki for human CB2 receptor expressed in HEK cells
Cannabinoid receptor 2 = Cannabinoid receptor 2 (Homo sapiens, UniProt P34972); assay: Displacement of [3H]CP-55940 from human CB2 receptor expressed in HEK cells by competitive binding assay; format: cell-based
Cannabinoid receptor 1 = Cannabinoid receptor 1 (Homo sapiens, UniProt P21554); assay: Displacement of [3H]CP-55940 from human CB1 receptor expressed in HEK cells by competitive binding assay; format: cell-based
[16] = biological target: Human immunodeficiency virus type 1 protease (Human immunodeficiency virus 1, UniProt Q72874); assay: Inhibition of HIV-1 protease

Chain of D(2) dopamine receptor (Bos taurus) (P20288 whole entry): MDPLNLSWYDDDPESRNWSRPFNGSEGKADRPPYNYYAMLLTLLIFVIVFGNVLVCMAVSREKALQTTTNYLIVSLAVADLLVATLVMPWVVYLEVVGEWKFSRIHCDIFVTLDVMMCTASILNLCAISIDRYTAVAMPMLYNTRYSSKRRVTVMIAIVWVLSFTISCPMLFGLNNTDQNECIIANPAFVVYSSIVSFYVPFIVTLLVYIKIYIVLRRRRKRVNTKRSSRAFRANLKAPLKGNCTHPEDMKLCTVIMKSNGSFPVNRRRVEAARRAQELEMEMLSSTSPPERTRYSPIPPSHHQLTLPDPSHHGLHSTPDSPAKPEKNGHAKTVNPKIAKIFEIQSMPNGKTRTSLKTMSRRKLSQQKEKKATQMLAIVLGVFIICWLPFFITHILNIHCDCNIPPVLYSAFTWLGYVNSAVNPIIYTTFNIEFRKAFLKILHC
Chain of Integrin alpha-4/beta-1 (P05556 whole entry): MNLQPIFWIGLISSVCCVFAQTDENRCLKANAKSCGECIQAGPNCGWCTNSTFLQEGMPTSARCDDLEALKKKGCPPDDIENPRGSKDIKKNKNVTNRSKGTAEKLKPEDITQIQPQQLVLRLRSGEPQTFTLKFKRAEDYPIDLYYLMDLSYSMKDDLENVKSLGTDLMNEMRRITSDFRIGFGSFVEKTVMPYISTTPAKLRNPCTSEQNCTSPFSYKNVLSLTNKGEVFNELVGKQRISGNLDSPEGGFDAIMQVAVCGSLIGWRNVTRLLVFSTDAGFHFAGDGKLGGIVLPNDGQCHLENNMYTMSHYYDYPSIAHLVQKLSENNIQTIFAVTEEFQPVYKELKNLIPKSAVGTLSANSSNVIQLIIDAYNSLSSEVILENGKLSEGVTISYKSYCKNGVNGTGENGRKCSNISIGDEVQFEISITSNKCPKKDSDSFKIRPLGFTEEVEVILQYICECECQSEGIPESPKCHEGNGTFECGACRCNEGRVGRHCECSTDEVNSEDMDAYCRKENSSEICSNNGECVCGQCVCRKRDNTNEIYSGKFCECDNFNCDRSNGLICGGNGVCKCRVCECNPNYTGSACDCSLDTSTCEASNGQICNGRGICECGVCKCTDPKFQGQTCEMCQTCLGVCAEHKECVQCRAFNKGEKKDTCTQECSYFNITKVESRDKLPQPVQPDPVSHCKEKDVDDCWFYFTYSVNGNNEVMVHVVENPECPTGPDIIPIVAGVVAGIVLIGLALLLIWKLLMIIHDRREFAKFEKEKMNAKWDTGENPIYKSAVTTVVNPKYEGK
Chain of Integrin alpha-4/beta-1 (P13612 whole entry): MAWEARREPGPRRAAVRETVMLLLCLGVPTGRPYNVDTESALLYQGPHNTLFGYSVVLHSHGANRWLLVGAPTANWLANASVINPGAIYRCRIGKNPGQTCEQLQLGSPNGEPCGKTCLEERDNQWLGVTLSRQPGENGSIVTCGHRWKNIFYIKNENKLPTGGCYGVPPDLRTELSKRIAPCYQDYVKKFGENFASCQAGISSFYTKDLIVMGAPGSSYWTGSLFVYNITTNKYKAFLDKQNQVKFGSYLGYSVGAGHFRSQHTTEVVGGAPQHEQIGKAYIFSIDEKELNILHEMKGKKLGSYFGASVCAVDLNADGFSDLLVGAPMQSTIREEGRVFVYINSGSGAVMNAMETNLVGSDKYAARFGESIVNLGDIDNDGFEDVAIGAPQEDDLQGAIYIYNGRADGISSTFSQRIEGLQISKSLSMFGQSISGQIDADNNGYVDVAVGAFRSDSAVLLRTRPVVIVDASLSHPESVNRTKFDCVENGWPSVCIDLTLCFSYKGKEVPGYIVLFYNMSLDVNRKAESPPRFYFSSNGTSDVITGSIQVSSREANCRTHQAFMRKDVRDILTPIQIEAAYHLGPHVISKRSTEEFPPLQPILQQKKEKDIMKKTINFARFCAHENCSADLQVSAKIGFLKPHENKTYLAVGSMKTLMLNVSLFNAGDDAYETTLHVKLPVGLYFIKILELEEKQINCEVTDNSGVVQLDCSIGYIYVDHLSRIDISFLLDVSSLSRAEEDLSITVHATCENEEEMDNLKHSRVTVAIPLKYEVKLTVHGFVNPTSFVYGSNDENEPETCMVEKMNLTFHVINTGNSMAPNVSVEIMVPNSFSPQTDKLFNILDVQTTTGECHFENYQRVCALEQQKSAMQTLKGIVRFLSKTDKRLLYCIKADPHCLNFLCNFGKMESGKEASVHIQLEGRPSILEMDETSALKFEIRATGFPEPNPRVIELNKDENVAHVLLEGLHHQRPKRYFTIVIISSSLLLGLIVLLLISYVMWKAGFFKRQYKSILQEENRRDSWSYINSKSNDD
Chain of Delta-type opioid receptor (P32300 whole entry): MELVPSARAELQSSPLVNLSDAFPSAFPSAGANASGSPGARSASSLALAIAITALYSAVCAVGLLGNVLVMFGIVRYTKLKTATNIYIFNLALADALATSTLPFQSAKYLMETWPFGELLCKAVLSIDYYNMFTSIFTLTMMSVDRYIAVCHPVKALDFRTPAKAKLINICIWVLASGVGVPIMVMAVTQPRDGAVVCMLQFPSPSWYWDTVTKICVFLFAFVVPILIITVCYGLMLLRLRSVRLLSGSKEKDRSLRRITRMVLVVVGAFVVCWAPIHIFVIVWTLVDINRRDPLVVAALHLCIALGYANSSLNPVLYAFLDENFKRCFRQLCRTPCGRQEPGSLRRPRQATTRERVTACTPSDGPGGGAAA
Chain of Interstitial collagenase (P03956 whole entry): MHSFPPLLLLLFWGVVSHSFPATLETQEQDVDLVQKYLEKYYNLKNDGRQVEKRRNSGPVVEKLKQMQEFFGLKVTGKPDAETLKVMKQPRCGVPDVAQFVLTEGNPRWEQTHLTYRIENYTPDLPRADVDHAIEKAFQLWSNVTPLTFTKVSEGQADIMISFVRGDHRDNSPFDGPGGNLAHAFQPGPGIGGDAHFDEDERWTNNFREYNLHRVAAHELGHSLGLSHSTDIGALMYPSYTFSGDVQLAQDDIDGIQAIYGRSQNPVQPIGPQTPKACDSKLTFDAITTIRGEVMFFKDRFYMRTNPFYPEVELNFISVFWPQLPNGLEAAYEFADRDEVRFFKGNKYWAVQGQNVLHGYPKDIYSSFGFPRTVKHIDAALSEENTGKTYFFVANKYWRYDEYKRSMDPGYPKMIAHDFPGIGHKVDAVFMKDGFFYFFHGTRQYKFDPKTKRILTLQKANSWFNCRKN
Chain of 72 kDa type IV collagenase (P08253 whole entry): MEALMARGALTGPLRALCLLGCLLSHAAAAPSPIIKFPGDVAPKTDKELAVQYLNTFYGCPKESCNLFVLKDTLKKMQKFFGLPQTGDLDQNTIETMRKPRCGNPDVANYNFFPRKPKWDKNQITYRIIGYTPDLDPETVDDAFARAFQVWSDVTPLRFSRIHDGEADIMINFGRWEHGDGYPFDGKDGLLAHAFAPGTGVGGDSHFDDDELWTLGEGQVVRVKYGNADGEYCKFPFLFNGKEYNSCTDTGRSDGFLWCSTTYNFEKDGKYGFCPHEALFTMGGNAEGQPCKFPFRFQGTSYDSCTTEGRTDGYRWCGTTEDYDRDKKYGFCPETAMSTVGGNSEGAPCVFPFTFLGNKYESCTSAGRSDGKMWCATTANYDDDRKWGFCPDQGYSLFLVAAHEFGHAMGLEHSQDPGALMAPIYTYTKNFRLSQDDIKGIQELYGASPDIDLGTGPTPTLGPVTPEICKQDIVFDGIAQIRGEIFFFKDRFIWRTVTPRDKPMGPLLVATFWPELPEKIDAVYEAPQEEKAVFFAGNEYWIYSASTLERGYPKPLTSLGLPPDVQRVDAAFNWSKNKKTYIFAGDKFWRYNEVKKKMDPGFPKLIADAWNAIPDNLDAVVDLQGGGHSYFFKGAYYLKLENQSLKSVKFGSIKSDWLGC
Chain of Cannabinoid receptor 1 (P21554 whole entry): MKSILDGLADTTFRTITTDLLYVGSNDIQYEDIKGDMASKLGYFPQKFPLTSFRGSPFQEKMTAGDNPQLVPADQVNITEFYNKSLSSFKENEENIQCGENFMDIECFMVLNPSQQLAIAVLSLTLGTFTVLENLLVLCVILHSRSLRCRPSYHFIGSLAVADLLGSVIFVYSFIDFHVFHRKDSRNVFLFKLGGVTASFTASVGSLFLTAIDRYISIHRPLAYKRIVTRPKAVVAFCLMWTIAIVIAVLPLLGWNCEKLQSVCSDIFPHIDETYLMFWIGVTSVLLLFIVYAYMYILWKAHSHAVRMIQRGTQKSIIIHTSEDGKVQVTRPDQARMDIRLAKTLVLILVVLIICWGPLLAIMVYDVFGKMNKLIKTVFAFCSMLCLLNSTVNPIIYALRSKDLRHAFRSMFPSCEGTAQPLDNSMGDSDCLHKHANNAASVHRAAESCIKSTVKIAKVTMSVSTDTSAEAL
Chain of Cannabinoid receptor 2 (P34972 whole entry): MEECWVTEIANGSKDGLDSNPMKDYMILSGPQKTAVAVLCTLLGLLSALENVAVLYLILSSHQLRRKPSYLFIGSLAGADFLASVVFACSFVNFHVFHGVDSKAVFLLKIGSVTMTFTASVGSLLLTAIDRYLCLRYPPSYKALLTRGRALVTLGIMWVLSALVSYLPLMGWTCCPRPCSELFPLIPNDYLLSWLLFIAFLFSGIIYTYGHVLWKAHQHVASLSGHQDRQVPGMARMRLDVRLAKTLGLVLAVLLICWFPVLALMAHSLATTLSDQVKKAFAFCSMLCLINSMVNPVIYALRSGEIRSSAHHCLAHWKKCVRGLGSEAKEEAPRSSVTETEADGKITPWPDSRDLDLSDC
Chain of Matrilysin (P09237 whole entry): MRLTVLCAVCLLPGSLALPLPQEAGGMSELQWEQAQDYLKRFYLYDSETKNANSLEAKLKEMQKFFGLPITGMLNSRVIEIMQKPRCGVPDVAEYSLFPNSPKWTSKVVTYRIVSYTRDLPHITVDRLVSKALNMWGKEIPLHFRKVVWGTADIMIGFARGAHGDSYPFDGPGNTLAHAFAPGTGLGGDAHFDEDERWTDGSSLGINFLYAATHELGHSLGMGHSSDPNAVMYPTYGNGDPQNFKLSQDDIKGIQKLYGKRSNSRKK

KiH [1]: 0.12 nM
KiL [1]: 172 nM
KiH [2]: 0.08 nM
KiL [2]: 120 nM
SMILES: CC(C)C[C@@H](C(=O)NCC(N)=O)N1CC(=O)N2CCC[C@H]2C1=O

SMILES: CC(C)C[C@H](NC(=O)[C@H](Cc1ccccc1)OC(=O)CNC(=O)CNC(=O)[C@@H](N)Cc1ccc(O)cc1)C(=O)O (H-YGG[PhLac]L-OH)
pKi [3]: 7.47

SMILES: N=C(N)NCCCCCCNC(=O)COC(=O)NCCCCNCCCN
Survival (Mus musculus [4]): 46 days
Survival (Mus musculus [5]): 58 days
Survival (Rattus norvegicus): 54 days

pIC50 (Integrin alpha-4/beta-1): 10.00
SMILES: COc1cccc(OC)c1-c1ccc(C[C@H](N=C(N)[C@@H]2CCN2S(=O)(=O)c2ccccc2)C(=O)O)cc1

pKi (Neprilysin): 6.68
SMILES: O=C(O)CC(=O)N[C@H](CS)Cc1ccccc1

KiH [1]: 0.14 nM
KiL [1]: 183 nM
KiH [2]: 0.098 nM
KiL [2]: 171 nM
SMILES: NC(=O)[C@H]1CS[C@@H]2C[C@@H](N3CC(=O)N4CCC[C@H]4C3=O)C(=O)N12

bioavailability [6]: 15%
pIC50 (Stromelysin-1): 8.00
pIC50 (Interstitial collagenase): 8.96
pIC50 (Matrilysin): 7.96
pIC50 [7]: 9.07
half-life [8]: 27 h
SMILES: C=CC[C@H](C(=O)NO)[C@@H](CC(C)C)C(=O)N[C@H](C(=O)NC)C(C)(C)C

pIC50 [9]: 7.77
SMILES: CC(C)c1cccc(C(C)C)c1NC(=O)NCCCCCc1ccccc1

SMILES: NCCCNCCCCNC(=O)NCC(=O)NCCCCCCN=C(N)N
Survival (Mus musculus [4]): 42 days
Survival (Mus musculus [5]): 48 days
Survival (Rattus norvegicus): 12 days

pIC50 (MDA-MB-231): 4.85
SMILES: O=S(=O)(NCc1ccc2c(c1)OCO2)c1ccccc1

pIC50 [10]: 9.62
SMILES: CC(C)(C)NC(=O)[C@@H]1C[C@@H]2CCCC[C@@H]2CN1C[C@@H](O)[C@H](Cc1ccccc1)NC(=O)[C@@H](NC(=O)c1ccc2ccccc2n1)[C@@H]1CCOC1
IC95 [11]: 8 nM

SMILES: CS(=O)(=O)c1ccc(C(=O)Nc2ccc(Cl)c(-c3ccccn3)c2)c(Cl)c1 [VISMODEGIB]
pIC50 [12]: 4.30
pIC50 (CCRF-CEM): 4.24
pIC50 (L1210): 4.31
pIC50 (HeLa): 4.19
pIC50 (HMEC-1): 4.39

pIC50 (Integrin alpha-4/beta-1): 9.89
SMILES: COc1cccc(OC)c1-c1ccc(C[C@H](N=C(NCC(F)(F)F)[C@@H]2CCN2S(=O)(=O)c2ccccc2)C(=O)O)cc1

Kapp [13]: 1.3 10^5/M
Kapp [14]: 345 10^5/M
SMILES: Cn1cc(NC(=O)c2cc(NC(=O)c3cc(NC=O)cn3C)cn2C)cc1C(=O)NCCC(=N)N

Kapp [13]: 0.9 10^5/M
Kapp [14]: 150 10^5/M
SMILES: CN(C)CCCNC(=O)c1cc(NC(=O)c2cc(NC(=O)c3cc(NC=O)cn3C)cn2C)cn1C

SMILES: CC(C)C[C@H](NC(=O)[C@H](Cc1ccccc1)NC(=S)CNC(=O)CNC(=O)[C@@H](N)Cc1ccc(O)cc1)C(=O)O
pKi [3]: 7.33

SMILES: CCCCCCCCCCCCNC(=O)N[C@@H](CO)[C@H](O)c1ccc([N+](=O)[O-])cc1
pIC50 (CAKI-2): 4.10
pIC50 (PC-3): 4.44
pIC50 (A549): 4.22
pIC50 (HL-60): 4.52
pIC50 (HT-29): 4.26

Kapp [13]: 3.5 10^5/M
Kapp [14]: 8.7 10^5/M
SMILES: CN(C)CCCNC(=O)c1cc(NC(=O)c2cc(NC(=O)c3cc([N+](=O)[O-])cn3C)cn2C)cn1C

pKi (Cannabinoid receptor 2): 8.19
pKi (Cannabinoid receptor 1): < 5.00
SMILES: CCCCCn1cc(-c2nnc(C34CC5CC(CC(C5)C3)C4)o2)c(=O)c2cc(-c3ccco3)ccc21
Ratio Ki [15]: >1543

SMILES: NCCCNCCCCNC(=O)CC(=O)NCCCCCCN=C(N)N
Survival (Mus musculus [4]): 53 days
Survival (Mus musculus [5]): 52 days
Survival (Rattus norvegicus): 9 days

KiH [1]: 0.19 nM
KiL [1]: 50 nM
KiH [2]: 0.08 nM
KiL [2]: 69 nM
SMILES: NC(=O)CN1CC[C@@H](N2CC(=O)N3CCC[C@H]3C2=O)C1=O

SMILES: CC(C)(C)NS(=O)(=O)CC[C@@H]1O[C@@H]1[C@H](Cc1ccccc1)NOC(=O)CCC(=O)NC(=O)c1ccc2ccccc2n1
pIC50 [16]: 7.52

From ChEMBL document CHEMBL4732045, “Amide Bond Bioisosteres: Strategies, Synthesis, and Successes” (J Med Chem, 2020)
